# Patent publication US20210024499A1, “OXIDIZED BIS(3-INDOLYL)METHANES AND USES THEREOF” (Sanford Burnam Prebys Medical Discovery Institute, priority 2018, published 2021)
# Experiments:
# HCT116 cells = test: PARP cleavage assay (Western blotting), HCT116; format: cell-based; conditions: 0.5 μM, 6 hours, Western blotting
# Description: (§1) Compound 1a had no effect under the same conditions (FIG. 1A). […] Compound 1a, 28a, 47a, 48a, 73a, 39a, 70a, 103a, 89a and 88a had no effect under the same conditions (FIG. 3B-C).
# HCT116 cancer cells [1] = test: Cell viability (MTT) assay, HCT116; format: cell-based; conditions: Homo sapiens, HCT-116; inhibiting the growth of HCT116 cancer cells, cell viability assay (Table 5)
# Experimental: (§2) Cell viability was analyzed by using a colorimetric 3-(4,5-dimethylthiazol-[…]2-yl)-2,5-diphenyletetrazolium Bromide (MTT) assay that determines mitochondrial dehydrogenase activities in the living cells with a colorimetric method. Cells treated with test compounds were incubated with MTT and their effect on the viability of the cells was assayed by the ability of treated cells to reduce the yellow tetrazolium dye MTT to its insoluble formazan, which has a purple color. […]
# MDA-MB-231 cancer cells = test: Cell viability (MTT) assay, MDA-MB-231; format: cell-based; conditions: Homo sapiens; inhibiting the growth of MDA-MB-231 cancer cells, cell viability assay (Table 6)
# Experimental: as §2
# MDA-MB-231 cells = test: PARP cleavage assay (Western blotting), MDA-MB-231; format: cell-based; conditions: 6 hours
# Description: as §1
# HCT116 cancer cells [2] = test: Apoptosis assay, Annexin V-FITC/propidium iodide flow cytometry; format: cell-based; conditions: Homo sapiens, HCT-116, 6 hours, Annexin V-FITC/PI flow cytometry (Table 4)
# Experimental: HCT116 cancer cells plated at a density of 1×10^6 per well on six-well plates were treated with different concentration of test compounds for 6 hours, and then the suspension and the adherent cells were collected, stained with Annexin V-FITC for 15 minutes and with propodium iodide for 5 minutes, and analyzed immediately by cytoFLEX Flow Cytometry System (Beckman-Coulter, Miami, Fla., USA) using FITC and PC5.5 (Table 4).
# pBind-RXRa-LBD and Nur77 = test: Mammalian one hybrid assay, Gal4-RXRa-LBD with Nur77; format: cell-based; conditions: cotransfection of pBind-RXRa-LBD and Nur77, Dual-Luciferase (FIG. 10)
# Experimental: (§3) HEK293T cells were co-transfected with pG5 Luciferase reporter together with the plasmid encoding RXRa-LBD fused with the Gal4 DNA-binding domain and other expression plasmids. After transfection, cells were treated with DMSO or a test compound, and assayed by using the Dual-Luciferase Reporter Assay System (Promega). Transfection efficiency was normalized to Renilla luciferase activity.
# (§4) To exclude the possibility that Compound 1 acted on RXRa, Glu453 and Glu456 in the RXRa activation function 2 (AF2) region were substituted with Ala and the resulting mutant, RXRa-LBD/E453,6A, was used.
# [3] = system: Nur77 and pBind-RXRa-LBD-E453,6A; test: Mammalian one hybrid assay, RXRa-LBD/E453,6A mutant with Nur77; format: cell-based; conditions: cells transfected with Nur77 and pBind-RXRa-LBD-E453,6A
# Experimental: as §3, §4
# Nur77 [4] = test: Cellular fractionation and immunostaining: mitochondrial targeting of Nur77; format: cell-based; conditions: immunostaining
# Experimental: (§5) For cellular fractionation, cells were lysed in cold buffer A (10 mM HEPES-KOH (pH 7.9), 1.5 mM MgCl2, 10 mM KCl, 0.5 mM dithiothreitol) with a cocktail of proteinase inhibitors on ice for 10 min as described. Cytoplasmic fraction was collected by centrifuging at 6000 rpm for 30 seconds. Pellets containing nuclei were resuspended in cold high-salt buffer C (20 mM HEPES-KOH (pH 7.9), 25% glycerol, 420 mM NaCl, 1.5 mM MgCl2, 0.2 mM EDTA, 0.5 mM dithiothreitol) with a cocktail of proteinase inhibitors on ice for 30 minutes.
# Nur77 [5] = biological target: T1, Nur77 (Homo sapiens, UniProt P22736); test: as above; format: cell-based; conditions: mitochondria fractionation, 1μM
# T1 construct: expressed in transfected cells
# T1 sequence (P22736 whole entry): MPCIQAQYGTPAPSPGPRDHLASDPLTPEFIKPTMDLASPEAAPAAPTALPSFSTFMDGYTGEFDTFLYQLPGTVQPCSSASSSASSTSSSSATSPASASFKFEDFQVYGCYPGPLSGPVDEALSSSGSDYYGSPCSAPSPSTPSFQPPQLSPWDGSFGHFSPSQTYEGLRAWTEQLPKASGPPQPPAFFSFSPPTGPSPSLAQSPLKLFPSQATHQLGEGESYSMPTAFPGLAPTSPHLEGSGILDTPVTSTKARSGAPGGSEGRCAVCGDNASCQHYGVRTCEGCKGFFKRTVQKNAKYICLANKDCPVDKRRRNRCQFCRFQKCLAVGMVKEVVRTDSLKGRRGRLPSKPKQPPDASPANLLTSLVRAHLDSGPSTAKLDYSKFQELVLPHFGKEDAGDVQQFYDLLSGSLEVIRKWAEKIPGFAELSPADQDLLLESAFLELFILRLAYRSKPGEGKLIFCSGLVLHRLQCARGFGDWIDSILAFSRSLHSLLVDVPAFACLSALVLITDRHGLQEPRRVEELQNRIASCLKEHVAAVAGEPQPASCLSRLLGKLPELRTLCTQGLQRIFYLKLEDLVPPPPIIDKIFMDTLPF
# Experimental: as §5
# [6] = system: mTOR markers p-S6 and p-4EBP1; test: mTOR inhibition: expression of mTOR markers; format: cell-based; conditions: MDA-MB-231 cells, 1 μM, 6 hours
# [7] = system: Nur77 interaction with Bcl-2; test: Confocal microscopy colocalization of Nur77 with Bcl-2; format: cell-based
# PyMT mammary tumor = test: MMTV-PyMT mice breast cancer model; format: in vivo
# Experimental: Female MMTV-PyMT mice of 12 weeks old were randomly divided into two groups (n=7 each), treated with a daily oral dose of test compound for 18 days. Standard histopathological analysis of tumor tissue was performed (see Example A-19). Test compounds were dissolved in DMSO and diluted with normal saline containing 5.0% (V/V) Tween-80 to a final concentration 0.5 mg/ml. Normal saline with DMSO and 5.0% Tween-80 was employed as the vehicle control.
# 4 μm thick sections were deparaffinized and rehydrated using xylene and a graded series of ethanol (100, 95, 85, 75, 50%), followed by washing in PBS. Antigen retrieval was performed in 10 mM sodium citrate buffer (pH 6.0), which was microwaved at 100° C. for 20 minutes. After rinsed twice in PBS, sections were blocked at room temperature for 1 hour by using 10% normal goat serum, followed by incubation with anti-ki-67, anti-cleaved-caspase-3, overnight (at least 17 hours) at 4° C. Colors were developed with a DAB horseradish peroxidase color development kit.
# [8] = system: Nur77 interaction with Bcl-2; test: Cell-based co-immunoprecipitation of Nur77 and Bcl-2; conditions: Nur77 transfected in HeLa cells
# Experimental: Western blotting and co-immunopreciptations (co-IP) were performed. Briefly, cells transfected with or without expression vectors for Nur77 and Bcl-2 were treated with test compounds for 2 hours. The effect of compounds on the interaction of endogenous or transfected Nur77 and Bcl-2 was analyzed by co-immunoprecipitation using appropriate antibodies. Proteins immunoprecipitated from cells by an appropriate anti-Nur77 or anti-Bcl-2 antibody were analyzed by Western blotting.
SMILES,IC50 (HCT116 cancer cells [1]) [nM],IC50 (MDA-MB-231 cancer cells) [nM],PARP cleavage (MDA-MB-231 cells; 0.5 μM),IC50 (HCT116 cancer cells [2]) [nM],further results
"FC(F)(F)c1ccc(C(c2c[nH]c3ccccc23)c2c[nH]c3ccccc23)cc1 [Compound 1a, reference compound]",≥ 5000,≥ 5000,no effect,–,PARP cleavage (HCT116 cells): no effect
"Clc1ccc([C+](c2c[nH]c3ccccc23)c2c[nH]c3ccccc23)cc1 [Compound 5, Bis(1H-indol-3-yl)(4-chlorophenyl)methylium methanesulfonate]",< 500,–,–,< 500,–
"COc1ccc([C+](c2c[nH]c3ccccc23)c2c[nH]c3ccccc23)cc1 [Compound 7, Bis(1H-indol-3-yl)(4-methoxyphenyl)methylium methanesulfonate]",500 to 5000,–,–,500 to 5000,–
"COC(=O)c1ccc([C+](c2c[nH]c3ccccc23)c2c[nH]c3ccccc23)cc1 [Compound 8, Bis(1H-indol-3-yl)(4-(methoxycarbonyl)phenyl)methylium methanesulfonate]",< 500,–,–,< 500,–
"CC1=C(/C=C/C(C)=C\C=C\C(C)=C\C(=O)O)C(C)(C)CCC1 [Compound 9-cis-RA, 9-cis-RA, reference compound]",–,–,–,–,reporter transcriptional activity (pBind-RXRa-LBD and Nur77): strongly activate; reporter transcriptional activity [3]: failed to induce the reporter activity
"Cn1cc([C+](c2ccc(C(F)(F)F)cc2)c2c[nH]c3ccccc23)c2ccccc21 [Compound 28, (1-Methyl-1H-indol-3-yl)(1H-indol-3-yl)(4-(trifluoromethyl)phenyl)methylium methanesulfonate]",< 500,< 500,effectively induced PARP cleavage,–,"Myc-Nur77-LBD colocalization with mitochondria (Nur77 [4]): colocalized extensively with the mitochondria; Myc-Nur77 in heavy membrane (HM) fraction (Nur77 [5]): accumulated in the mitochondria-enriched heavy membrane (HM) fraction; expression levels of mTOR markers p-S6 and p-4EBP1 [6]: reduced the expression levels; colocalization of transfected GFP-Nur77 (and GFP-Nur77-LBD) with Bcl-2 [7]: promoted extensive colocalization; expression levels of mTOR markers p-S6 and p-mTOR in tumor (PyMT mammary tumor; 3 mg/kg): markedly reduced; growth of PyMT mammary tumor (PyMT mammary tumor; 3 mg/kg daily oral, 18 days): inhibited the growth of PyMT mammary tumor; Nur77 interaction with Bcl-2 (Co-IP) [8]: interacted with Bcl-2; PARP cleavage (MDA-MB-231 cells; 1 μM): effectively induce PARP cleavage"
"Fc1ccc2[nH]cc([C+](c3ccc(C(F)(F)F)cc3)c3c[nH]c4ccccc34)c2c1.[Cl-] [Compound 73, (5-Fluoro-1H-indol-3-yl)(1H-indol-3-yl)(4-(trifluoromethyl)phenyl)methylium chloride]",< 500,< 500,effectively induced PARP cleavage,–,expression levels of mTOR markers p-S6 and p-4EBP1 [6]: reduced the expression levels; PARP cleavage (MDA-MB-231 cells; 1 μM): effectively induce PARP cleavage
"O=C(O)c1ccc([C+](c2c[nH]c3ccccc23)c2c[nH]c3ccccc23)cc1 [Compound 82, Bis(1H-indol-3-yl)(4-carboxyphenyl)methylium methanesulfonate]",500 to 5000,–,–,500 to 5000,–
